Assay results taken from patent publication US9340517B2, “Methods of modulating the activity of the MC5 receptor and treatment of conditions related to this receptor” (Mimetica PTY LTD, priority 2008, dated 2016).
Read-outs that look alike come from different tables or passages of the source.

What was measured:
human MC5R = human MC5R (Homo sapiens (Human), UniProt P33032); experiment: Human MC5R radioligand binding assay ([125I] NDP-MSH displacement, membranes)
Experimental: Assessments of compound binding to human MC5R (hMC5R)) by displacement of an ^125I-labeled NDP-MSH receptor ligand peptide were performed essentially as described in the data sheets produced by Perkin Elmer to accompany their frozen hMC5R membranes (Perkin Elmer catalog number RBXMC5M400UA).
Na^125I (0.5 mCi, 17.4 Ci/mg) was added to 50 μL sodium phosphate (50 mM, pH 7.4) in an eppendorf tube precoated with IODOGEN. After incubation for 10 mins the phosphate buffer containing the iodine was added to NDP-MSH (10 ul at 1 mg/mL) in a separate eppendorf tube. This was incubated for a further 10 mins. The iodinated NDP-MSH was purified by HPLC on a Zorbax SB 300 column using solvent A: 0.05% TFA and solvent B: 90% acetonitrile 0.045% TFA with a linear gradient, 0-67% B over 60 mins.
Perkin Elmer frozen hMC5 membranes: catalog number RBXMC5M400UA, 0.4 mL/vial; 400 microassays/vial, 0.78 mg/mL protein concentration
Vials of frozen membranes were thawed rapidly immediately before use, diluted with binding buffer and vortexed. Resuspended membranes were kept on ice until they were added to the wells of the plate.
Assays were performed in 96 well polypropylene plates. […] This was incubated for 1 hr at 37° C.

[1] = oral, cited from earlier work
[2] = hMC5R binding assay as in Example 102, compounds tested as trifluoroacetate or hydrochloride salts, or as free base
[3] = hMC5R binding assay as in Example 102, compounds tested as trifluoroacetate or hydrochloride salts, or free base

Sequence of human MC5R (P33032 whole entry): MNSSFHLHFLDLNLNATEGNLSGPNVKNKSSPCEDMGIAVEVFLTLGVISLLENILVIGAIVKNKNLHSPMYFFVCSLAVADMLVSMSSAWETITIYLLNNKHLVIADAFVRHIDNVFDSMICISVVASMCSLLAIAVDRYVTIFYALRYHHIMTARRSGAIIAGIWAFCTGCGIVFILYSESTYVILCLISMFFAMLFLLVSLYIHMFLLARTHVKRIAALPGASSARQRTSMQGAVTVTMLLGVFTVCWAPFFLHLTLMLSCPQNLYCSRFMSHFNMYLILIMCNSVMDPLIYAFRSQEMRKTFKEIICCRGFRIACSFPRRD

SMILES	IC50 (human MC5R; [2]) [µM]	IC50 (human MC5R) [µM]	further results
N=C(N)NCCC[C@@H]1N[C@H](CNC(=O)/C=C/c2ccccc2)CCN(CC(c2ccccc2)c2ccccc2)C1=O [Compound 153, N-(((3S,5S)-1-(2,2-diphenylethyl)-3-(3-guanidinopropyl)-2-oxo-1,4-diazepan-5-yl)methyl)cinnamamide]	< 0.1	–	–
NCCC[C@@H]1N[C@H](CNC(=O)/C=C/c2ccccc2)CCN(CC(c2ccccc2)c2ccccc2)C1=O [Compound 213, N-(((3S,5S)-3-(3-aminopropyl)-1-(2,2-diphenylethyl)-2-oxo-1,4-diazepan-5-yl)methyl)cinnamamide]	< 1	–	–
NCC[C@@H]1N[C@H](CNC(=O)/C=C/c2ccccc2)CCN(CC(c2ccccc2)c2ccccc2)C1=O [Compound 282, N-(((3S,5S)-3-(2-aminoethyl)-1-(2,2-diphenylethyl)-2-oxo-1,4-diazepan-5-yl)methyl)cinnamamide]	< 1	–	–
O=C(NC[C@@H]1CCN(Cc2cc(Cl)cc(Cl)c2)C(=O)[C@H](CCN2CCOCC2)N1)c1ccc2cc(Cl)ccc2c1 [Compound 555]	–	–	IC50 (human MC5R; [3]): < 0.1 µM
O=C(NCC1CCN(CC(c2ccccc2)c2ccccc2)C(=O)C(C2CCNCC2)N1)c1ccc2ccccc2c1 (racemic) [Compound 197, N-((1-(2,2-diphenylethyl)-2-oxo-3-(piperidin-4-yl)-1,4-diazepan-5-yl)methyl)-2-naphthamide]	–	< 1	–
CC1=C(/C=C/C(C)=C/C=C/C(C)=C\C(=O)O)C(C)(C)CCC1 [isotretinoin, 13-cis-retinoic acid]	–	–	reduction of sebum excretion ([1]; after 8-12 weeks of therapy): up to 90%; reduction of sebum excretion ([1]; by 2 weeks): 60-70%
CC[C@H](CN1CC[C@@H](CNC(=O)Cc2ccc(Cl)cc2Cl)N[C@@H](CCN2CCCCC2)C1=O)c1ccccc1 [Compound 540, 2-(2,4-dichlorophenyl)-N-(((3S,5S)-2-oxo-1-((S)-2-phenylbutyl)-3-(2-(piperidin-1-yl)ethyl)-1,4-diazepan-5-yl)methyl)acetamide]	–	< 1	–
CC[C@H](CN1CC[C@@H](CNC(=O)c2ccc3cc(Cl)ccc3c2)N[C@H](CCN2CCCCC2)C1=O)c1ccccc1 [Compound 582, 6-chloro-N-(((3R,5S)-2-oxo-1-((S)-2-phenylbutyl)-3-(2-(piperidin-1-yl)ethyl)-1,4-diazepan-5-yl)methyl)-2-naphthamide]	–	< 0.1	–
O=C(NCC1CCN(CC(c2ccccc2)c2ccccc2)C(=O)C(CC2CCNCC2)N1)c1ccc2ccccc2c1 (racemic) [Compound 198, N-((1-(2,2-diphenylethyl)-2-oxo-3-(piperidin-4-ylmethyl)-1,4-diazepan-5-yl)methyl)-2-naphthamide]	–	< 1	–
O=C(NC[C@@H]1CCN(Cc2cc(Cl)cc(Cl)c2)C(=O)[C@H](CCN2CCOCC2)N1)c1ccc(Cl)c(Cl)c1 [Compound 556]	–	–	IC50 (human MC5R; [3]): < 0.1 µM
Nc1ccccc1C[C@H]1C(=O)N(CC(c2ccccc2)c2ccccc2)CC[C@H]2CN(C(=O)/C=C/c3ccc(Cl)cc3)CN21 [Compound 453, (5S,9aS)-5-((2-aminobenzyl)-2-(E)-3-(4-chlorophenyl)acryloyl)-7-(2,2-diphenylethyl)hexahydro-1H-imidazo[1,5-d][1,4]diazepin-6(5H)-one]	< 1	–	–
CC[C@@H](CN1CC[C@@H](CNC(=O)c2ccc3cc(Cl)ccc3c2)N[C@H](CCN2CCCCC2)C1=O)c1ccccc1 [Compound 584, 6-chloro-N-(((3R,5S)-2-oxo-1-((R)-2-phenylbutyl)-3-(2-(piperidin-1-yl)ethyl)-1,4-diazepan-5-yl)methyl)-2-naphthamide]	–	< 1	–
O=C(/C=C/c1ccccc1)NC[C@@H]1CCN(CC(c2ccccc2)c2ccccc2)C(=O)[C@H](CCCN2CCCCC2)N1 [Compound 269, N-(((3S,5S)-1-(2,2-diphenylethyl)-2-oxo-3-(3-(piperidin-1-yl)propyl)-1,4-diazepan-5-yl)methyl)cinnamamide]	< 0.1	–	–
COc1ccc2cc(C(=O)NC[C@@H]3CCN(Cc4cc(Cl)cc(Cl)c4)C(=O)[C@H](CCN4CCCCC4)N3)ccc2c1 [Compound 568]	–	–	IC50 (human MC5R; [3]): < 0.1 µM
